# Laboratory results taken from publication PMC12951562, “SH2scan: Mapping SH2 Domain-Ligand Binding Selectivity for Inhibitors and Degraders” (Journal of Medicinal Chemistry, 2026).
# Non-standard residues stand in square brackets, D forms with d. Residues, ends and D or L forms follow the SMILES beside them. pY = N[C@@H](Cc1ccc(OP(=O)(O)O)cc1)C(=O)O
# How the values were obtained:
# Assay in all cases: biochemical
# Assay type in all cases: binding
# SOCS1 = biological target: T1, SOCS1 (Homo sapiens, UniProt O15524)
# T1 construct: made in house; host or cells: HEK293 (transient transfection), unpurified extract
# T1 sequence (O15524 1-211): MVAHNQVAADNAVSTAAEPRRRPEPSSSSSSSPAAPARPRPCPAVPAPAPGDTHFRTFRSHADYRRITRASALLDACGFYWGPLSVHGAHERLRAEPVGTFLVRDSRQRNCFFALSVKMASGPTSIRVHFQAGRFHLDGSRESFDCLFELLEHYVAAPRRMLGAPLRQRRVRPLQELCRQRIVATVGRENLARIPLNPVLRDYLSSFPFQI
# CRKL = biological target: T2, CRKL (Homo sapiens, UniProt P46109)
# T2 construct: the DNA-tagged SH2 domain concentrations used in this study were <0.1 nM; made in house; host or cells: HEK293 (transient transfection; unpurified extract)
# T2 sequence (P46109 14-102 limits assumed): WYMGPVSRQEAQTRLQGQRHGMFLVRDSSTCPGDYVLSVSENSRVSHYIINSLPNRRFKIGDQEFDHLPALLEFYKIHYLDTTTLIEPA
# TXK = biological target: T3, TXK (Homo sapiens, UniProt P42681)
# T3 construct: made in house; host or cells: HEK293 (transient transfection), unpurified extract
# T3 sequence (P42681 1-527): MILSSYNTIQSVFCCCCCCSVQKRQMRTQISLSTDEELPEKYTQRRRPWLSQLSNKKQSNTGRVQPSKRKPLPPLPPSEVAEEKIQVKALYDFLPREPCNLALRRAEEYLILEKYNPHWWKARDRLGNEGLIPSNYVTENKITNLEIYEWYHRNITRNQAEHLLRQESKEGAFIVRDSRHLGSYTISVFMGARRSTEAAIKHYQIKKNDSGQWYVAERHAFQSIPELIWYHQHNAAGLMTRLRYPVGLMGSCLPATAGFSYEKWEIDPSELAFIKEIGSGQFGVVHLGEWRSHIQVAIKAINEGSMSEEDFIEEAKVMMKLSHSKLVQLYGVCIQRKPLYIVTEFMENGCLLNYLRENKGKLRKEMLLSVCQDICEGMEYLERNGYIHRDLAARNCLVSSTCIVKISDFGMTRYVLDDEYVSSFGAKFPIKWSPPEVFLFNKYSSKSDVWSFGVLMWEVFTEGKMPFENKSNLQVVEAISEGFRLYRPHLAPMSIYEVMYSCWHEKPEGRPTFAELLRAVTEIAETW
# PLCG1(SH2dom.C-term.) = biological target: T4, PLCG1(SH2dom.C-term.) (Homo sapiens, UniProt P19174)
# T4 construct: SH2dom.C-term. denotes SH2 domain closest to C-terminus of protein; made in house; host or cells: HEK293 (transient transfection, unpurified extract)
# T4 sequence (P19174 668-756 limits assumed): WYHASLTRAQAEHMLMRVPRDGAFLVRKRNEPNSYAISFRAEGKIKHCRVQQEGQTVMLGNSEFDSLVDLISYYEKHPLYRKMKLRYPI
# VAV2 = biological target: T5, VAV2 (Homo sapiens, UniProt P52735)
# T5 construct: made in house; host or cells: HEK293 (transient transfection), unpurified extract
# T5 sequence (P52735 1-878): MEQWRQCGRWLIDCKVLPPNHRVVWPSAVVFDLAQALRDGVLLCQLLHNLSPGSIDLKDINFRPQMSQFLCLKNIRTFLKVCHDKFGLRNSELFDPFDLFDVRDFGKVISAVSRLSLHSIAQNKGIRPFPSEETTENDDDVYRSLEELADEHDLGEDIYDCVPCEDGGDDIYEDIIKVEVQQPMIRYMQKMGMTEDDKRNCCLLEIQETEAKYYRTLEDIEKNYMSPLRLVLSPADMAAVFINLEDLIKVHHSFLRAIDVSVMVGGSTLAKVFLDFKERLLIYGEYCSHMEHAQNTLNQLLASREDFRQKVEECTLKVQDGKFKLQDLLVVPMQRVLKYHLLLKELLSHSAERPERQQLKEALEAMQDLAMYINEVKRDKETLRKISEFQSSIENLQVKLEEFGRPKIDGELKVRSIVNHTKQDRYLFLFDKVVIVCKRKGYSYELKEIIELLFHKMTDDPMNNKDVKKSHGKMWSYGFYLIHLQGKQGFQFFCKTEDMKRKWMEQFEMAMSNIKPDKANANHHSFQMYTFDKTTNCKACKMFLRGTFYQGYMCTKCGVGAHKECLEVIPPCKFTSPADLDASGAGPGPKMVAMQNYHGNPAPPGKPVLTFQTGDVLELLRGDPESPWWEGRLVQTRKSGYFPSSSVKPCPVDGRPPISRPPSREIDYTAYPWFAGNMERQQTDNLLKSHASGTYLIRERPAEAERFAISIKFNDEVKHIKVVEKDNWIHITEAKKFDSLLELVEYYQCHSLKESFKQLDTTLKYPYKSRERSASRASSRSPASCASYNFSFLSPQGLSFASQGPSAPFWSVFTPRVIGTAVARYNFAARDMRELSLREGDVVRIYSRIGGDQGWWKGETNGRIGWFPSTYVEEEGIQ
# VAV3 = biological target: T6, VAV3 (Homo sapiens, UniProt Q9UKW4)
# T6 construct: made in house; host or cells: HEK293 (transient transfection), unpurified extract
# T6 sequence (Q9UKW4 1-847): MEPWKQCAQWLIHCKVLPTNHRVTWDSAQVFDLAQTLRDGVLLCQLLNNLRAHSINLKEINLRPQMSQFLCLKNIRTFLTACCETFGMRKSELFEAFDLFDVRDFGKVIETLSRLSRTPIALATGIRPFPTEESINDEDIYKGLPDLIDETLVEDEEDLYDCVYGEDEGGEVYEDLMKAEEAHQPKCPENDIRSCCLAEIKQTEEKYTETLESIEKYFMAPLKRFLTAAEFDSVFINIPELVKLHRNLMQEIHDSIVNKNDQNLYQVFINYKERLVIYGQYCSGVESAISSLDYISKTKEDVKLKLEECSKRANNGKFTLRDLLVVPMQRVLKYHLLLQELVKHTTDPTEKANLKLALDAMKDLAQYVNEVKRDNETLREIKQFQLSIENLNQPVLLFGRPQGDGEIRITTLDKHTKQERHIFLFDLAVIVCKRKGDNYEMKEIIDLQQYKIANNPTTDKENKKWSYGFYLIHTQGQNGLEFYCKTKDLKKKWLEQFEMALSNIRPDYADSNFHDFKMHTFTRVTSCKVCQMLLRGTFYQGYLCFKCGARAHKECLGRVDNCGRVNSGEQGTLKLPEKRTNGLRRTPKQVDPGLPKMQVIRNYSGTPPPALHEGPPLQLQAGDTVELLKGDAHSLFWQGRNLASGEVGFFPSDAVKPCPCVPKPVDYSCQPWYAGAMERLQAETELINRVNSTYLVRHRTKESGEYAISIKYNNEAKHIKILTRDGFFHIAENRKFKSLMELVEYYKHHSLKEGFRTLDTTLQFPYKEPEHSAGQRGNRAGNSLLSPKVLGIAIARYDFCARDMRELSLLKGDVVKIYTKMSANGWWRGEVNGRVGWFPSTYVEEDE
# VAV1 = biological target: T7, VAV1 (Homo sapiens, UniProt P15498)
# T7 construct: made in house; host or cells: HEK293 (transient transfection), unpurified extract
# T7 sequence (P15498 1-845): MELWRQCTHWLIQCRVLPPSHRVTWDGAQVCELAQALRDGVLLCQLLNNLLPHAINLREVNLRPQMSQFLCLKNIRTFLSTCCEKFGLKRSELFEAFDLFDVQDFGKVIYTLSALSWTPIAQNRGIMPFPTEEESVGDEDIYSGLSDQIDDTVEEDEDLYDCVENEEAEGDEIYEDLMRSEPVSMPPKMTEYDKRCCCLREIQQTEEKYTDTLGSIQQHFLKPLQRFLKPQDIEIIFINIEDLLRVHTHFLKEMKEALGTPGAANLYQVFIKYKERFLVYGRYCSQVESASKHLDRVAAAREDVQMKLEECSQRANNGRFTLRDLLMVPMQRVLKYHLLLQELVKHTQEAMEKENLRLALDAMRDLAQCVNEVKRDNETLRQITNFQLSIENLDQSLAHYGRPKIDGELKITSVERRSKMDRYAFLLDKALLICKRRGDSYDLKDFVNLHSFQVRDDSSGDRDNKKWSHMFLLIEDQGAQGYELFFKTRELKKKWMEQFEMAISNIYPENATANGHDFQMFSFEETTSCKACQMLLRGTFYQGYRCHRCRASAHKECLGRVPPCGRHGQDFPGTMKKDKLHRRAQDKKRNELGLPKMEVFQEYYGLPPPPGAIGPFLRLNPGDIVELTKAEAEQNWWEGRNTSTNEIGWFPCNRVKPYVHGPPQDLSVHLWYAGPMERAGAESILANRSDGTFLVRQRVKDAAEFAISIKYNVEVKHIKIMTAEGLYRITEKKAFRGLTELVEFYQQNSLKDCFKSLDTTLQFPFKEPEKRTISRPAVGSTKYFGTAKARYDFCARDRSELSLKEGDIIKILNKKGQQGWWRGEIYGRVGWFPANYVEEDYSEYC
# NCK1 = biological target: T8, NCK1 (Homo sapiens, UniProt P16333)
# T8 construct: the DNA-tagged SH2 domain concentrations used in this study were <0.1 nM; made in house; host or cells: HEK293 (transient transfection, unpurified extract)
# TEC = biological target: T9, TEC (Homo sapiens, UniProt P42680)
# T9 construct: made in house; host or cells: HEK293 (transient transfection), unpurified extract
# T9 sequence (P42680 1-631): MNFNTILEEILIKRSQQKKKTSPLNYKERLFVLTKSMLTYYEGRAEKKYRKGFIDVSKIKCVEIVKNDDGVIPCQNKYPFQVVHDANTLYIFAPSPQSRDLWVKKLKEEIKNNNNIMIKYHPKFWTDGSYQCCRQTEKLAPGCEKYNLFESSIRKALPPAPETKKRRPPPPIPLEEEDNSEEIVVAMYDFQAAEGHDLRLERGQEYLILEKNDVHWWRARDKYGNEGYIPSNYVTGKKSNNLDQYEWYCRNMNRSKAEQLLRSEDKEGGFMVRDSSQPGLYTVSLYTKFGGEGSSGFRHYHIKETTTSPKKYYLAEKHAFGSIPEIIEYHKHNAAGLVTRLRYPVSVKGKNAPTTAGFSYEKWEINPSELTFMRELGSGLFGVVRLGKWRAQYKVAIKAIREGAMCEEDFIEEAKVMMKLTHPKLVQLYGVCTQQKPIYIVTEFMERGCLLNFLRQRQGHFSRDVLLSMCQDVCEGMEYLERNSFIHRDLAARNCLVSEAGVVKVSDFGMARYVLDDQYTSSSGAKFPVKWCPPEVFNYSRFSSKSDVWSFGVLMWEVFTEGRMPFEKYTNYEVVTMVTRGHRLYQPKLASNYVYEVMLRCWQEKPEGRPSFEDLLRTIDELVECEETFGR
smiles,measurement,setting,value
CC(=O)N[C@@H](CS)C(=O)N[C@@H](CCC(N)=O)C(=O)N[C@H](C(=O)N[C@@H](Cc1ccc(OP(=O)(O)O)cc1)C(=O)N[C@@H](Cc1ccccc1)C(=O)N[C@H](C(=O)N[C@@H](Cc1ccc(O)cc1)C(=O)N[C@@H](CC(=O)O)C(=O)N1CCC[C@H]1C(=O)N[C@@H](Cc1ccc(O)cc1)C(=O)N[C@@H](CO)C(=O)N[C@@H](CCC(=O)O)C(N)=O)[C@@H](C)O)C(C)C (Ac-CQV[pY]FTYDPYSE-NH2),Kd,SOCS1,1430 ± 426 nM
CC(=O)N[C@@H](CCC(=O)O)C(=O)N1CCC[C@H]1C(=O)NCC(=O)N1CCC[C@H]1C(=O)N[C@@H](Cc1ccc(OP(=O)(O)O)cc1)C(=O)N[C@@H](C)C(=O)N[C@@H](CCC(N)=O)C(=O)N1CCC[C@H]1C(=O)N[C@@H](CO)C(=O)N[C@H](C(=O)N[C@@H](CC(N)=O)C(=O)N[C@H](C(N)=O)[C@@H](C)O)C(C)C (Ac-EPGP[pY]AQPSVNT-NH2),Kd,CRKL,1200 ± 309 nM
CC(=O)N[C@@H](CC(=O)O)C(=O)N[C@H](C(=O)N[C@@H](CCC(=O)O)C(=O)N[C@H](C(=O)N[C@@H](Cc1ccc(OP(=O)(O)O)cc1)C(=O)N[C@@H](CCC(=O)O)C(=O)N[C@@H](CO)C(=O)N1CCC[C@H]1C(=O)N[C@@H](Cc1ccc(OP(=O)(O)O)cc1)C(=O)N[C@@H](C)C(=O)N[C@@H](CC(=O)O)C(=O)N1CCC[C@H]1C(=O)N[C@@H](CCC(=O)O)C(N)=O)C(C)C)[C@@H](C)O [Ac-DTEVpYESPpYADPE-NH2] (Ac-DTEV[pY]ESP[pY]ADPE-NH2),Kd,TXK,4120 ± 637 nM
same,Kd,PLCG1(SH2dom.C-term.),2910 ± 2740 nM
same,Kd,VAV2,95.1 ± 19.9 nM
same,Kd,VAV3,163 ± 48.2 nM
same,Kd,VAV1,1400 ± 193 nM
CC[C@H](C)[C@H](NC(=O)[C@H](Cc1c[nH]cn1)NC(=O)[C@H](CCC(=O)O)NC(C)=O)C(=O)N[C@@H](Cc1ccc(OP(=O)(O)O)cc1)C(=O)N[C@@H](CC(=O)O)C(=O)N[C@@H](CCC(=O)O)C(=O)N[C@H](C(=O)N[C@@H](C)C(=O)N[C@@H](C)C(=O)N[C@@H](CC(=O)O)C(N)=O)C(C)C [Ac-EHIpYDEVAAD-NH2],Kd,NCK1,15.3 ± 5.07 nM
same,Kd,TEC,267 ± 66.3 nM
